Laboratory results as given in patent US20160367623A1, “AGONISTS OF GUANYLATE CYCLASE USEFUL FOR THE TREATMENT OF GASTROINTESTINAL DISORDERS, INFLAMMATION, CANCER AND OTHER DISORDERS” (priority 2015, published 2016).
Bridge positions count the residues as written; N and C are the ends. Ends that are not written are not given here.

Test system: patients with chronic idiopathic constipation (CIC)
Assay: Second phase 3 CIC trial: CSBM weekly responders by week
Type: in vivo, human
Details: MRA
From the text: Both trials include a two-week pre-treatment baseline period, a 12-week treatment period, and a two-week post-treatment period. The phase 3 CIC program was designed to support regulatory submission in the U. S.
The primary endpoint for both trials is the proportion of durable overall responders (%), which is the current regulatory endpoint required for U.S. approval in CIC. The FDA has defined a durable overall responder as a patient who fulfills both ≧3 complete spontaneous bowel movements (CSBMs) per week plus an increase of ≧1 CSBM from baseline in the same week, for 9 out of the 12 treatment weeks. In addition, the same patient must be an overall responder for at least 3 of the last 4 treatment weeks in order to be considered a durable overall responder.
Patients were selected using Rome 3 criteria modified for CIC and had (1) fewer than 3 defecations per week, (2) loose stools occurring rarely without laxatives, (3) inadequate criteria for irritable bowel syndrome with constipation (IBS-C), and (4) at least two of the following applied to at least 25% of defecations: (a) straining during evacuation, (b) lumpy or hard stools, (c) sensation of anorectal obstruction or blockage. Rome 3 requires patients to fulfill the criteria for the last 3 months with symptom onset at least 6 months prior to diagnosis.

[1] = Week 6, 3 mg, ITT Population-Excluding Duplicate Patients
[2] = Week 6, 6 mg, ITT Population-Excluding Duplicate Patients
[3] = Week 6, Active Combined, ITT Population-Excluding Duplicate Patients
[4] = Week 6, Active Combined, ITT Population
[5] = Week 7, 3 mg, ITT Population-Excluding Duplicate Patients
[6] = Week 7, 6 mg, ITT Population-Excluding Duplicate Patients
[7] = Week 7, Active Combined, ITT Population-Excluding Duplicate Patients
[8] = Week 7, Active Combined, ITT Population
[9] = Week 8, 3 mg, ITT Population-Excluding Duplicate Patients
[10] = Week 8, 6 mg, ITT Population-Excluding Duplicate Patients
[11] = Week 8, Active Combined, ITT Population-Excluding Duplicate Patients
[12] = Week 8, Active Combined, ITT Population
[13] = Week 9, 3 mg, ITT Population-Excluding Duplicate Patients
[14] = Week 9, 6 mg, ITT Population-Excluding Duplicate Patients

Substance: Asn^1-Asp^2-Glu^3-Cys^4-Glu^5-Leu^6-Cys^7-Val^8-Asn^9-Val^10-Ala^11-Cys^12-Thr^13-Gly^14-Cys^15-Leu^16 (NDECELCVNVACTGCL; disulfide 4-12, 7-15) [Plecanatide, uroguanylin analogue, guanylate cyclase-C agonist; (C4:C12, C7:C15) bicycle peptide]
- Non-Responders, n (%) (Week 5, Active Combined, ITT Population): 605 (67.8) n (%)
- Difference in Proportions (adjusted) (Week 6, 3 mg minus placebo, All Randomized (includes Duplicate Patients)): 0.100
- Odds Ratio (adjusted) (Week 6, 3 mg vs placebo, All Randomized (includes Duplicate Patients)): 0.593
- CSBM Weekly Responders, n (%) (Week 6, 3 mg, ITT Population): 137 (30.9) n (%)
- Non-Responders, n (%) (Week 6, 3 mg, ITT Population): 306 (69.1) n (%)
- CSBM Weekly Responders, n (%) [1]: 136 (31.3) n (%)
- Non-Responders, n (%) [1]: 298 (68.7) n (%)
- Difference in Proportions (adjusted) (Week 6, 6 mg minus placebo, All Randomized (includes Duplicate Patients)): 0.110
- Odds Ratio (adjusted) (Week 6, 6 mg vs placebo, All Randomized (includes Duplicate Patients)): 0.566
- CSBM Weekly Responders, n (%) (Week 6, 6 mg, ITT Population): 146 (32.5) n (%)
- Non-Responders, n (%) (Week 6, 6 mg, ITT Population): 303 (67.5) n (%)
- CSBM Weekly Responders, n (%) [2]: 146 (33.0) n (%)
- Non-Responders, n (%) [2]: 297 (67.0) n (%)
- Difference in Proportions (adjusted) (Week 6, 3 mg minus placebo, ITT Population-Excluding Duplicate Patients): 0.096
- Difference in Proportions (adjusted) (Week 6, 3 mg minus placebo, ITT Population): 0.093
- Odds Ratio (adjusted) (Week 6, 3 mg vs placebo, ITT Population-Excluding Duplicate Patients): 0.610
- Odds Ratio (adjusted) (Week 6, 3 mg vs placebo, ITT Population): 0.615
- Difference in Proportions (adjusted) (Week 6, 6 mg minus placebo, ITT Population-Excluding Duplicate Patients): 0.112
- Difference in Proportions (adjusted) (Week 6, 6 mg minus placebo, ITT Population): 0.109
- Odds Ratio (adjusted) (Week 6, 6 mg vs placebo, ITT Population-Excluding Duplicate Patients): 0.565
- Odds Ratio (adjusted) (Week 6, 6 mg vs placebo, ITT Population): 0.571
- CSBM Weekly Responders, n (%) [3]: 282 (32.2) n (%)
- Non-Responders, n (%) [3]: 595 (67.8) n (%)
- CSBM Weekly Responders, n (%) [4]: 283 (31.7) n (%)
- Non-Responders, n (%) [4]: 609 (68.3) n (%)
- Difference in Proportions (adjusted) (Week 7, 3 mg minus placebo, All Randomized (includes Duplicate Patients)): 0.091
- Odds Ratio (adjusted) (Week 7, 3 mg vs placebo, All Randomized (includes Duplicate Patients)): 0.634
- CSBM Weekly Responders, n (%) (Week 7, 3 mg, ITT Population): 145 (32.7) n (%)
- Non-Responders, n (%) (Week 7, 3 mg, ITT Population): 298 (67.3) n (%)
- CSBM Weekly Responders, n (%) [5]: 144 (33.2) n (%)
- Non-Responders, n (%) [5]: 290 (66.8) n (%)
- Difference in Proportions (adjusted) (Week 7, 6 mg minus placebo, All Randomized (includes Duplicate Patients)): 0.075
- Odds Ratio (adjusted) (Week 7, 6 mg vs placebo, All Randomized (includes Duplicate Patients)): 0.681
- CSBM Weekly Responders, n (%) (Week 7, 6 mg, ITT Population): 140 (31.2) n (%)
- Non-Responders, n (%) (Week 7, 6 mg, ITT Population): 309 (68.8) n (%)
- CSBM Weekly Responders, n (%) [6]: 140 (31.6) n (%)
- Non-Responders, n (%) [6]: 303 (68.4) n (%)
- Difference in Proportions (adjusted) (Week 7, 3 mg minus placebo, ITT Population-Excluding Duplicate Patients): 0.089
- Difference in Proportions (adjusted) (Week 7, 3 mg minus placebo, ITT Population): 0.085
- Odds Ratio (adjusted) (Week 7, 3 mg vs placebo, ITT Population-Excluding Duplicate Patients): 0.645
- Odds Ratio (adjusted) (Week 7, 3 mg vs placebo, ITT Population): 0.659
- Difference in Proportions (adjusted) (Week 7, 6 mg minus placebo, ITT Population-Excluding Duplicate Patients): 0.074
- Difference in Proportions (adjusted) (Week 7, 6 mg minus placebo, ITT Population): 0.069
- Odds Ratio (adjusted) (Week 7, 6 mg vs placebo, ITT Population-Excluding Duplicate Patients): 0.693
- Odds Ratio (adjusted) (Week 7, 6 mg vs placebo, ITT Population): 0.707
- CSBM Weekly Responders, n (%) [7]: 284 (32.4) n (%)
- Non-Responders, n (%) [7]: 593 (67.6) n (%)
- CSBM Weekly Responders, n (%) [8]: 285 (32.0) n (%)
- Non-Responders, n (%) [8]: 607 (68.0) n (%)
- Difference in Proportions (adjusted) (Week 8, 3 mg minus placebo, All Randomized (includes Duplicate Patients)): 0.076
- Odds Ratio (adjusted) (Week 8, 3 mg vs placebo, All Randomized (includes Duplicate Patients)): 0.687
- CSBM Weekly Responders, n (%) (Week 8, 3 mg, ITT Population): 145 (32.7) n (%)
- Non-Responders, n (%) (Week 8, 3 mg, ITT Population): 298 (67.3) n (%)
- CSBM Weekly Responders, n (%) [9]: 144 (33.2) n (%)
- Non-Responders, n (%) [9]: 290 (66.8) n (%)
- Difference in Proportions (adjusted) (Week 8, 6 mg minus placebo, All Randomized (includes Duplicate Patients)): 0.067
- Odds Ratio (adjusted) (Week 8, 6 mg vs placebo, All Randomized (includes Duplicate Patients)): 0.716
- CSBM Weekly Responders, n (%) (Week 8, 6 mg, ITT Population): 144 (32.1) n (%)
- Non-Responders, n (%) (Week 8, 6 mg, ITT Population): 305 (67.9) n (%)
- CSBM Weekly Responders, n (%) [10]: 143 (32.3) n (%)
- Non-Responders, n (%) [10]: 300 (67.7) n (%)
- Difference in Proportions (adjusted) (Week 8, 3 mg minus placebo, ITT Population-Excluding Duplicate Patients): 0.073
- Difference in Proportions (adjusted) (Week 8, 3 mg minus placebo, ITT Population): 0.069
- Odds Ratio (adjusted) (Week 8, 3 mg vs placebo, ITT Population-Excluding Duplicate Patients): 0.703
- Odds Ratio (adjusted) (Week 8, 3 mg vs placebo, ITT Population): 0.717
- Difference in Proportions (adjusted) (Week 8, 6 mg minus placebo, ITT Population-Excluding Duplicate Patients): 0.064
- Difference in Proportions (adjusted) (Week 8, 6 mg minus placebo, ITT Population): 0.062
- Odds Ratio (adjusted) (Week 8, 6 mg vs placebo, ITT Population-Excluding Duplicate Patients): 0.731
- Odds Ratio (adjusted) (Week 8, 6 mg vs placebo, ITT Population): 0.738
- CSBM Weekly Responders, n (%) [11]: 287 (32.7) n (%)
- Non-Responders, n (%) [11]: 590 (67.3) n (%)
- CSBM Weekly Responders, n (%) [12]: 289 (32.4) n (%)
- Non-Responders, n (%) [12]: 603 (67.6) n (%)
- Difference in Proportions (adjusted) (Week 9, 3 mg minus placebo, All Randomized (includes Duplicate Patients)): 0.084
- Odds Ratio (adjusted) (Week 9, 3 mg vs placebo, All Randomized (includes Duplicate Patients)): 0.656
- CSBM Weekly Responders, n (%) (Week 9, 3 mg, ITT Population): 147 (33.2) n (%)
- Non-Responders, n (%) (Week 9, 3 mg, ITT Population): 296 (66.8) n (%)
- CSBM Weekly Responders, n (%) [13]: 146 (33.6) n (%)
- Non-Responders, n (%) [13]: 288 (66.4) n (%)
- Difference in Proportions (adjusted) (Week 9, 6 mg minus placebo, All Randomized (includes Duplicate Patients)): 0.073
- Odds Ratio (adjusted) (Week 9, 6 mg vs placebo, All Randomized (includes Duplicate Patients)): 0.691
- CSBM Weekly Responders, n (%) (Week 9, 6 mg, ITT Population): 141 (31.4) n (%)
- Non-Responders, n (%) (Week 9, 6 mg, ITT Population): 308 (68.6) n (%)
- CSBM Weekly Responders, n (%) [14]: 140 (31.6) n (%)
- Non-Responders, n (%) [14]: 303 (68.4) n (%)
- Difference in Proportions (adjusted) (Week 9, 3 mg minus placebo, ITT Population-Excluding Duplicate Patients): 0.082
- Difference in Proportions (adjusted) (Week 9, 3 mg minus placebo, ITT Population): 0.082
- Odds Ratio (adjusted) (Week 9, 3 mg vs placebo, ITT Population-Excluding Duplicate Patients): 0.673
- Odds Ratio (adjusted) (Week 9, 3 mg vs placebo, ITT Population): 0.67
- Difference in Proportions (adjusted) (Week 9, 6 mg minus placebo, ITT Population-Excluding Duplicate Patients): 0.062
- Difference in Proportions (adjusted) (Week 9, 6 mg minus placebo, ITT Population): 0.065
- Odds Ratio (adjusted) (Week 9, 6 mg vs placebo, ITT Population-Excluding Duplicate Patients): 0.738
